From US20240116875A1, “RATIONAL DESIGN, OPTIMIZATION, AND BIOLOGICAL EVALUATION OF NOVEL MEK4 INHIBITORS AGAINST PANCREATIC ADENOCARCINOMA” (NORTHWESTERN UNIVERSITY, priority 2022, published 2024)
Several values for one entry are separate records, joined by “and”; a condition that tells them apart may be missing. Equal entries are not always repeated. Entries after “also recorded” stand apart in the source; their conditions may differ. Where two headings read alike, the source gives them in different places.

How the values were obtained:
[1] = system: Caco-2; assay: Caco-2 permeability assay; type: in vitro ADME
[2] = system: phospho-p42/44 MAPK in CD18 cells; assay: p42/44 MAPK phosphorylation, western blotting, CD18; type: cell-based, human; conditions: CD18, MEK4 inhibitor 10 μM, 5 hours
Protocol: (§1) The effects of different treatments on phospho-p42/44 MAPK and total p42/44 MAPK expression levels were determined by western blotting. HSP90 was used as loading control. The blots are representative of at least three biological replicates.
(§2) Whole cell extracts of cultured cells were prepared in radioimmunoprecipitation (RIPA) lysis buffer supplemented with phosphatase and protease inhibitors (Calbiochem). Protein concentration was determined by the bicinchoninic acid assay (BCA) (ThermoFisher) and separated by the SDS-PAGE technique. […] Secondary anti-mouse IgG (A4416) and anti-rabbit IgG (A6667) antibodies were purchased from Sigma-Aldrich and used a 1:4000 dilution. Images of blots were acquired on HyBlot ES Autoradiography Film (Thomas Scientific, Swedesboro, NJ, USA) following incubation with SuperSignal West Pico PLUS (ThermoFisher).

[3] = system: phospho-p42/44 MAPK in MiaPaCa2 cells; assay: p42/44 MAPK phosphorylation, western blotting, MiaPaCa2; type: cell-based, human; conditions: MiaPaCa2, MEK4 inhibitor 10 μM, 5 hours
Protocol: as §1, §2

[4] = target: CYP 2D6 (Homo sapiens, UniProt P10635); assay: CYP inhibition, 2D6
Sequence of CYP 2D6 (P10635 whole entry): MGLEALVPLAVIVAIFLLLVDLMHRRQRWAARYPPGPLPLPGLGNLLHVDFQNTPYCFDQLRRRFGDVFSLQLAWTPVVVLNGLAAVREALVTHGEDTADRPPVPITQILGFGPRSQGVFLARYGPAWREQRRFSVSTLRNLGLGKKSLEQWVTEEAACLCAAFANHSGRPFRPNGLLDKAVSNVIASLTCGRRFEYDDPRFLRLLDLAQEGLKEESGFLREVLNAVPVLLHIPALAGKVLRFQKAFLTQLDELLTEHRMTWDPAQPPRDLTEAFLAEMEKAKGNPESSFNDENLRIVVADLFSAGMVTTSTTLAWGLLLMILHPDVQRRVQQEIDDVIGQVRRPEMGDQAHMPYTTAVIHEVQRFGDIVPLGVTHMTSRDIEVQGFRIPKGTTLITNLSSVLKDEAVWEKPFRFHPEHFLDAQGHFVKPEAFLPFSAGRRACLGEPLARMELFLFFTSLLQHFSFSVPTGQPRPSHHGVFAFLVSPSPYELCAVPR

[5] = system: MiaPaCa2 cells; assay: cell proliferation (cell count after 72 hours), MiaPaCa2; type: cell-based, human; conditions: MiaPaCa2, 72 hours, varying doses, single agent
Protocol: (§3) After 72 hours, cells were trypsinized, counted, and the cell numbers were normalized against the DMSO treatment. Mean±SD. Graphs are representative of 3 biological replicates.
as §3
(§4) Cell numbers from different treatments were normalized against the DMSO treatment, and CDI is calculated as follows: CDI=AB/(A×B), with AB being the ratio of the combination groups to control group and A or B being the ratio of the single agent group to the DMSO group. Mean±SEM from 3 biological replicates.
(§5) We also examined the effects of these inhibitors on JNK phosphorylation and proliferation of two pancreatic cancer cell lines (CD18 and MiaPaCa2).
(§6) Human pancreatic cancer cell lines (CD18/HPAF-II and MiaPaCa2) and HEK293T cells were obtained from American Type Culture Collection. All cell lines were cultured according to the manufacturer's protocol. All media contained 10% Fetal Bovine Serum (FBS) and antibiotics (100 U/mL Penicillin and 100 μg/mL Streptomycin).

[6] = in vitro; conditions: microsomes
[7] = target: T1, ERK1 (Homo sapiens, UniProt P27361); assay: scanEDGE DiscoverX kinome-wide scan, ERK1; type: binding; conditions: 10 μM
T1 construct: purchased Eurofins DiscoverX scanEDGE
T1 sequence (P27361 whole entry): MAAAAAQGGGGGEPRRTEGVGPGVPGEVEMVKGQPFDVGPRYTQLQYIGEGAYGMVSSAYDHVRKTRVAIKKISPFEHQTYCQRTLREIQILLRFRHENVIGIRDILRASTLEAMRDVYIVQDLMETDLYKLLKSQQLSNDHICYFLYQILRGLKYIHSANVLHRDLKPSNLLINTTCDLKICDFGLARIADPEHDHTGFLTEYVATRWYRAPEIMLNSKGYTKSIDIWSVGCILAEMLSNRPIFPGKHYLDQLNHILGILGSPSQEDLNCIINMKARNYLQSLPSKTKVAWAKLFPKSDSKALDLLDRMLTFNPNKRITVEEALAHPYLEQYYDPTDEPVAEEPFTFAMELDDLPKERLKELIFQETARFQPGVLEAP
Source text: (§7) To compare our compounds to the rest of the MEK inhibitors discovered thus far, we turned to the DiscoverX platform (KINOMEscan®, Eurofins DiscoverX), a widely used assay for comparing selectivity across the kinome. The DiscoverX platform reports the thermodynamic Kd in order to facilitate direct comparison of inhibitor affinity across the kinome, independent of ATP concentration.

[8] = system: MEK7 expression in HEK293T cells; assay: MEK7 expression, western blotting, HEK293T; type: cell-based, human; conditions: anisomycin pretreatment, compound 100 μM, 5 hours
Protocol: (§8) HSP90 was used as loading control. The blots are representative of at least three biological replicates.
(§9) We next evaluated the effects of our inhibitors on the phosphorylation activity and expression of MEK1/2, MEK3/6, and MEK7. […] We also evaluated the effects on p42/44 MAPK (ERK1/2), which functions downstream of MEK1/2.
as §2

[9] = target: T2, RAF (Homo sapiens, UniProt P04049); assay: scanEDGE DiscoverX kinome-wide scan, RAF; type: binding; conditions: 10 μM
T2 construct: purchased Eurofins DiscoverX scanEDGE
T2 sequence (P04049 whole entry): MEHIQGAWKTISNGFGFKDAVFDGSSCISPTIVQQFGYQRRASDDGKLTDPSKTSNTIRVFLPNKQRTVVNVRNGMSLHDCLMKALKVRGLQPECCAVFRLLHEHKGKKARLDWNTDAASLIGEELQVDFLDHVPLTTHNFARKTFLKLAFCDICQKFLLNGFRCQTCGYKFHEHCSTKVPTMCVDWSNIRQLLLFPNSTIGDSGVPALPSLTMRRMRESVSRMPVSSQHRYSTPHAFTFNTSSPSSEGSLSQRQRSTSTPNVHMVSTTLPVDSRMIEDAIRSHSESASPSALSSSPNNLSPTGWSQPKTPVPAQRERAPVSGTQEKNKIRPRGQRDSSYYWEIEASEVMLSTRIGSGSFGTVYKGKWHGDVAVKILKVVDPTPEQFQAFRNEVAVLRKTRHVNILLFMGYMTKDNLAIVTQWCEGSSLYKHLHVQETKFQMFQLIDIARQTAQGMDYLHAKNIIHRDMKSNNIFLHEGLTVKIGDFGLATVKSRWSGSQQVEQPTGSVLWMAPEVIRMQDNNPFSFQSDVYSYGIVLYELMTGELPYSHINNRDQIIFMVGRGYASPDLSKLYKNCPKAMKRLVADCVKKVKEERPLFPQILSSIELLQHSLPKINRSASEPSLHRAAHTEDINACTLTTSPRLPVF
Source text: as §7

[10] = system: 97 kinases; assay: scanEDGE DiscoverX kinome-wide scan; type: binding; conditions: 10 μM
Source text: as §7

[11] = system: phospho-p42/44 MAPK in HEK293T cells; assay: p42/44 MAPK (ERK1/2) phosphorylation, western blotting, HEK293T; type: cell-based, human; conditions: anisomycin pretreatment, compound 100 μM, 5 hours
Protocol: as §8, §9, §2

[12] = target: CYP 1A2 (Homo sapiens, UniProt P05177)
Sequence of CYP 1A2 (P05177 whole entry): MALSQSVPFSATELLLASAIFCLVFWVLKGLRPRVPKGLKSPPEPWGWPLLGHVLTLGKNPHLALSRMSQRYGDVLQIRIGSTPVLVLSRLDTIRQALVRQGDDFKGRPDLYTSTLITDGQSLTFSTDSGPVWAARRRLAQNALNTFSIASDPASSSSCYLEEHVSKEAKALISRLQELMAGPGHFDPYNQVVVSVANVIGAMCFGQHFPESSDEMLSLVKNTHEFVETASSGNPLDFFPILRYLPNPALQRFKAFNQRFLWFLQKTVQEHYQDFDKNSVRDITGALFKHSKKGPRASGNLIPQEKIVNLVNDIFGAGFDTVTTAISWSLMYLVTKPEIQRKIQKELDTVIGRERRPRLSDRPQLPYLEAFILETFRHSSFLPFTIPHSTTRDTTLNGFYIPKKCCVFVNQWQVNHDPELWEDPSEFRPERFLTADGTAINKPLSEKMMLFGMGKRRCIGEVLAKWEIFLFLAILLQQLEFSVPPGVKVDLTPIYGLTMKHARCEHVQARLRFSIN

[13] = system: CD18 cells; assay: cell proliferation (cell count after 72 hours), CD18; type: cell-based, human; conditions: CD18, 72 hours, varying doses, single agent
Protocol: as §3, §3, §4, §5, §6

[14] = target: T3, MEK7 (Homo sapiens, UniProt O14733); assay: ADP-Glo kinase activity assay, MEK7; type: biochemical
T3 construct: purchased Carna Biosciences
T3 sequence (O14733 1-419): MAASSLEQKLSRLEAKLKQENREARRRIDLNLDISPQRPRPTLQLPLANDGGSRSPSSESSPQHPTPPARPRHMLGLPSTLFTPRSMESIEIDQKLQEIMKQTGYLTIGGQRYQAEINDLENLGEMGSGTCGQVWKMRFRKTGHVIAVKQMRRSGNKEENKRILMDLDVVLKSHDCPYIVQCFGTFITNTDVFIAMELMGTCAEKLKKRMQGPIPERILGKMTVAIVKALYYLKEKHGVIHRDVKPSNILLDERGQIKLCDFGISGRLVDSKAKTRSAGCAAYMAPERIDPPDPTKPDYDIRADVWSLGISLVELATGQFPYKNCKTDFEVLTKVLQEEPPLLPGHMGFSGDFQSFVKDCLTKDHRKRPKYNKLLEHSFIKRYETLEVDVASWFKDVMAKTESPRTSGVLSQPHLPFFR
Protocol: The compounds were then evaluated both in vitro and in a cellular system. When studying kinase inhibitors, there are a multitude of ways to evaluate selectivity across kinases.
Procedure for a 5 μL Kinase reaction using the ADP-Glo Kinase Assay Kit from Promega. Staurosporine was used as the positive control, and DMSO as the negative control. Activity of recombinant active full-length human MEK4 (Carna Biosciences) was measured using the ADP-Glo assay with recombinant full-length human p38α (MAPK14). Kinase reactions with MEK7 (Carna Biosciences) were done at the same concentration and amounts with recombinant full-length human p38α (MAPK14).
For each well, 4 ng of MEK4 and 600 ng of p38α in Kinase buffer (CST) were used, and 1 μL of this mixture was dispensed per well.
Inhibitor was prepared in a DMSO solution. A dose response dilution was done in a 384-well Echo transfer plate. […] This mixture was allowed to incubate for 30 minutes at room temperature.
Using a Mantis, 1 μL, of an 8 μM ATP solution was added to each well, and the plate was allowed to incubate for another 1 hour at room temperature. […] All experiments were done in triplicate on the plate, and at least in one separate technical duplicate.

[15] = PAMPA assay (BioDuro-Sundia); type: in vitro ADME

For NC(=O)c1ccc(NS(=O)(=O)c2cccc(-c3n[nH]c4cc(F)ccc34)c2)cc1 [Compound 15o, 4-((3-(6-fluoro-1H-indazol-3-yl)phenyl)sulfonamido)benzamide], the Caco-2 permeability [1] was “medium to high permeability”, the Pgp substrate ([1]; Caco-2 permeability assay) was “likely to be a Pgp substrate” and the “effect on p42/44 MAPK phosphorylation” value [2] was “increased p42/44 MAPK phosphorylation”. The “effect on p42/44 MAPK phosphorylation” value [3] was “did not induce p42/44 MAPK phosphorylation”, the “inhibition of CYP 2D6” value [4] was “low inhibition” and the cell proliferation [5] was “decreased proliferation; also recorded: antiproliferative properties”. The half-life [6] was greater than 3.08 h, the “stability in the microsome assay” value [6] was “good stability” and the “inhibition of ERK1” value [7] was “did not inhibit”. The “effect on the expression of MEK7” value [8] was “no effect”, the “inhibition of RAF” value [9] was “did not inhibit” and the “number of kinases hit at 80% or higher inhibition, out of 97 kinases” value [10] was 28. The “effect on p42/44 MAPK phosphorylation after anisomycin” value [11] was “reversed the effects of anisomycin”, the “inhibition of CYP 1A2” value [12] was “inhibited” and the cell proliferation [13] was “decreased proliferation; also recorded: antiproliferative properties”. The IC50 ([14]; headline value per compound, read-out: MEK7 IC50) was 0.096 µM, the IC50 ([14]; individual experiment, values in brackets, n=3, read-out: MEK7 IC50 of each experiment (IC50±SEM)) was 0.041 µM and 0.15 µM and the “permeability in the PAMPA assay” value [15] was “low permeability”.
